Experimental data from US4196288A, “Ergoline derivatives and a process for their preparation” (Societa Farmaceutici Italia S.p.A., priority 1976, dated 1980).
Like-named read-outs stand apart in the source and are kept apart here.

What was measured:
nidation = assay: Nidation inhibition test in rats (anti-prolactin activity; absence of implantation sites); type: in vivo, rat (Sprague-Dowley); settings: Rattus norvegicus
Excerpt: Prolactin is considered to be the only hypophysial hormone involved in the maintenance of the first part of pregnancy in rats.
For the assessment of the anti-prolactin activity, the nidation inhibition test (M.C. Shelesnyak, Amer. J. Physiol., 180, 47, 1955) in rats was employed. For the ergoline derivatives this test is considered to be correlated with prolactin-inhibiting ability (K. Rezabek et al., J. Pharm. Sci., 64, 1045, 1976).
Adult female rats, of the Sprague-Dowley strain, in proestrus were mated with fertile males and their vaginal smears were examined the next morning. The presence of spermatozoa was considered evidence of impregnation and onset of pregnancy (day 1).
The compounds to be tested were administered orally or subcutaneously to groups of from six to eight rats on day 3. On day 14, the animals were sacrificed and the uterus was examined for the presence of implantation sites. The absence of implantation sites was taken as the criterion of anti-prolactin activity.
Several doses were tested for the ED50 evaluation.
As the reference standard Bromocriptine was used, this being well known both for its anti-nidation (E. Fluckiger and H. R. Wagner, Experientia, 24, 1130, 1968) and its anti-prolactin activity (C. L. Brooks and C. W. Welsch, Proc. Soc. Exp. Bio. Med., 146, 863, 1974).

[1] = Emetic activity in dogs (intravenous); settings: dog, in vivo, male beagle dogs, i.v., observed for 1 hour after treatment, read-out: ≅ED50, emetic activity in dogs
Excerpt: The emetic activity of some of the compounds was investigated by intravenous administration to male beagle dogs weighing 15-20 kg. […] Five to six animals per dose were employed for the ED50 evaluation.

[2] = sc, rats, s.c., dosed on day 3, uterus examined on day 14, read-out: ≅ED50, nidation inhibition in rats (subcutaneous treatment)
[3] = rats, os (oral), dosed on day 3, uterus examined on day 14, read-out: ≅ED50, nidation inhibition in rats (oral treatment)

In the case of CCCCCC(=O)OCC(=O)C1C[C@@H]2c3cccc4[nH]cc(c34)C[C@H]2N(C)C1 (stereo partly shown) [Compound 992, 8-Caproyloxyacetyl-6-methylergoline], the ED50 (nidation; [2]) is reported as roughly 1 mg/kg and the ED50 (nidation; [3]) is reported as roughly 0.5 mg/kg.
CN1CC(C(=O)COC(=O)c2cccnc2)C[C@@H]2c3cccc4[nH]cc(c34)C[C@H]21 (stereo partly shown) [Compound 1012, 8-Nicotinoyloxyacetyl-6-methylergoline] gave an ED50 (nidation; [2]) of roughly 1 mg/kg and an ED50 (nidation; [3]) of roughly 1 mg/kg.
With CN1CC(C(=O)CO)C[C@@H]2c3cccc4[nH]cc(c34)C[C@H]21 (stereo partly shown) [Compound 615, 6-Methyl-8-hydroxyacetylergoline] the ED50 (nidation; [2]) was roughly 0.5 mg/kg, the ED50 (nidation; [3]) was roughly 0.5 mg/kg and the TD50 at 1 h [1] was roughly 0.025 mg/kg.
CC(C)C[C@H]1C(=O)N2CCC[C@H]2[C@]2(O)O[C@](NC(=O)[C@@H]3C=C4c5cccc6[nH]c(Br)c(c56)C[C@H]4N(C)C3)(C(C)C)C(=O)N12 [Bromocriptine, reference compound] showed an ED50 (nidation; po, read-out: ≅ED50, nidation inhibition in rats (oral treatment)) of roughly 8 mg/kg, an ED50 (nidation; sc, read-out: ≅ED50, nidation inhibition in rats (subcutaneous treatment)) of roughly 1 mg/kg and a TD50 at 1 h [1] of roughly 0.007 mg/kg.
CN1CC(C(=O)COC(=O)c2cncc(Br)c2)C[C@@H]2c3cccc4[nH]cc(c34)C[C@H]21 (stereo partly shown) [Compound 613, 6-Methyl-8-(5'-bromonicotinoyloxyacetyl)ergoline] showed an ED50 (nidation; [2]) of roughly 0.5 mg/kg, an ED50 (nidation; [3]) of roughly 0.5 mg/kg and a TD50 at 1 h [1] of roughly 0.045 mg/kg.
With CN1CC(C(=O)CN2CCCCC2)C[C@@H]2c3cccc4[nH]cc(c34)C[C@H]21 (stereo partly shown) [Compound 611, 6-Methyl-8-piperidinoacetylergoline] the ED50 (nidation; [2]) was roughly 1 mg/kg and the ED50 (nidation; [3]) was roughly 0.5 mg/kg.
Work on CN1CC(C(=O)COC(=O)c2ccncc2)C[C@@H]2c3cccc4[nH]cc(c34)C[C@H]21 (stereo partly shown) [Compound 991, 8-Isonicotinoyloxyacetyl-6-methylergoline] yielded an ED50 (nidation; [2]) of roughly 2 mg/kg and an ED50 (nidation; [3]) of roughly 2 mg/kg.
COc1cccc(OC)c1C(=O)OCC(=O)C1C[C@@H]2c3cccc4[nH]cc(c34)C[C@H]2N(C)C1 (stereo partly shown) [Compound 1013, 8-(2',6'-dimethoxybenzoyloxyacetyl)-6-methylergoline] gave an ED50 (nidation; [2]) of roughly 1 mg/kg and an ED50 (nidation; [3]) of roughly 0.5 mg/kg.
For CN1CCN(CC(=O)C2C[C@@H]3c4cccc5[nH]cc(c45)C[C@H]3N(C)C2)CC1 (stereo partly shown) [Compound 1014, 6-Methyl-8-(4'-methylpiperazino)acetylergoline], the ED50 (nidation; [2]) was roughly 1 mg/kg and the ED50 (nidation; [3]) was roughly 1 mg/kg.
For CN1CC(C(=O)COC(=O)c2ccccc2)C[C@@H]2c3cccc4[nH]cc(c34)C[C@H]21 (stereo partly shown) [Compound 1000, 8-Benzoyloxyacetyl-6-methylergoline], the ED50 (nidation; [2]) was roughly 1 mg/kg and the ED50 (nidation; [3]) was roughly 0.5 mg/kg.
Molecule CN1CC(C(=O)COC(=O)C(C)(C)C)C[C@@H]2c3cccc4[nH]cc(c34)C[C@H]21 (stereo partly shown) [Compound 1011, 8-Pivaloyloxyacetyl-6-methylergoline] has an ED50 (nidation; [2]) of roughly 1 mg/kg and an ED50 (nidation; [3]) of roughly 0.5 mg/kg.
